Data published in patent US12540143B2, “Methods and compositions for targeted protein degradation” (Ranok Therapeutics (Hangzhou) Co. Ltd., priority 2019, dated 2026).
Where a name gives a salt, the structure may show the parent alone.

Tested on: MV4-11 cells
Experiment: MV4-11 Cytotoxicity Assay
Assay type: cell-based, human
Settings: Homo sapiens, MV4-11; 72 hr, CCK-8; read-out: MV4-11 cytotoxicity

`Cc1sc2c(c1C)C(c1ccc(Cl)cc1)=N[C@@H](CC(=O)NCCOCCOc1ccc(-n3c(S)nnc3-c3cc(C(C)C)c(O)cc3O)cc1)c1nnc(C)n1-2` [Compound 33, (S)-2-(4-(4-chlorophenyl)-2,3,9-trimethyl-6H-thieno[3,2-f][1,2,4]triazolo[4,3-a][1,4]diazepin-6-yl)-N-(2-(2-(4-(3-(2,4-dihydroxy-5-isopropylphenyl)-5-mercapto-4H-1,2,4-triazol-4-yl)phenoxy)ethoxy)ethyl)acetamide] and `Cc1sc2c(c1C)C(c1ccc(Cl)cc1)=N[C@@H](CC(=O)NCc1ccc(-n3c(S)nnc3-c3cc(C(C)C)c(O)cc3O)cc1)c1nnc(C)n1-2` [Compound 28, (S)-2-(4-(4-chlorophenyl)-2,3,9-trimethyl-6H-thieno[3,2-f][1,2,4]triazolo[4,3-a][1,4]diazepin-6-yl)-N-(4-(3-(2,4-dihydroxy-5-isopropylphenyl)-5-mercapto-4H-1,2,4-triazol-4-yl)benzyl)acetamide] fall in the same range of IC50: 100 to 1000 nM for the first, 100 to 1000 nM for the second.

First: CCNC(=O)c1nnc(-c2cc(C(C)C)c(O)cc2O)n1-c1ccc(CC2CCN(CC3CCN(C(=O)C[C@@H]4N=C(c5ccc(Cl)cc5)c5c(sc(C)c5C)-n5c(C)nnc54)CC3)CC2)cc1 [Compound 90, (S)-4-(4-((1-((1-(2-(4-(4-chlorophenyl)-2,3,9-trimethyl-6H-thieno[3,2-f][1,2,4]triazolo[4,3-a][1,4]diazepin-6-yl)acetyl)piperidin-4-yl)methyl)piperidin-4-yl)methyl)phenyl)-5-(2,4-dihydroxy-5-isopropylphenyl)-N-ethyl-4H-1,2,4-triazole-3-carboxamide]
Second: Cc1sc2c(c1C)C(c1ccc(Cl)cc1)=N[C@@H](CC(=O)N1CCC(CN3CCN(Cc4ccc(-n5c(C(=O)NC(C)C)nnc5-c5cc(C(C)C)c(O)cc5O)cc4)CC3)CC1)c1nnc(C)n1-2 [Compound 108, (S)-4-(4-((4-((1-(2-(4-(4-chlorophenyl)-2,3,9-trimethyl-6H-thieno[3,2-f][1,2,4]triazolo[4,3-a][1,4]diazepin-6-yl)acetyl)piperidin-4-yl)methyl)piperazin-1-yl)methyl)phenyl)-5-(2,4-dihydroxy-5-isopropylphenyl)-N-isopropyl-4H-1,2,4-triazole-3-carboxamide, trifluoroacetic acid]
The IC50 of the first is lower: under 100 nM for the first, 100 to 1000 nM for the second.

Compared with `Cc1sc2c(c1C)C(c1ccc(Cl)cc1)=N[C@@H](CC(=O)NCCOCCN1CCN(Cc3ccc(-n4c(O)nnc4-c4cc(C(C)C)c(O)cc4O)cc3)CC1)c1nnc(C)n1-2` [Compound 49, 2-((6S)-4-(4-chlorophenyl)-2,3,9-trimethyl-6H-thieno[3,2-f][1,2,4]triazolo[4,3-a][1,4]diazepin-6-yl)-N-(2-(2-(4-(4-(3-(2,4-dihydroxy-5-isopropylphenyl)-5-hydroxy-4H-1,2,4-triazol-4-yl)benzyl)piperazin-1-yl)ethoxy)ethyl)acetamide, trifluoroacetic acid, trifluoroacetic acid, trifluoroacetic acid, trifluoroacetic …], `Cc1sc2c(c1C)C(c1ccc(Cl)cc1)=N[C@@H](CC(=O)NCCOCCN1CCC(Cc3ccc(-n4c(O)nnc4-c4cc(C(C)C)c(O)cc4O)cc3)CC1)c1nnc(C)n1-2` [Compound 37, 2-((6S)-4-(4-chlorophenyl)-2,3,9-trimethyl-6H-thieno[3,2-f][1,2,4]triazolo[4,3-a][1,4]diazepin-6-yl)-N-(2-(2-(4-(4-(3-(2,4-dihydroxy-5-isopropylphenyl)-5-hydroxy-4H-1,2,4-triazol-4-yl)benzyl)piperidin-1-yl)ethoxy)ethyl)acetamide, trifluoroacetic acid] is higher in IC50: under 100 nM for the first, 100 to 1000 nM for the second. The first is the more potent here.

`CCc1cc(-c2nnc(C(=O)NC(C)C)n2-c2ccc(CN3CCN(CC4CCN(C(=O)C[C@@H]5N=C(c6ccc(Cl)cc6)c6c(sc(C)c6C)-n6c(C)nnc65)CC4)CC3)cc2)c(O)cc1O` [Compound 105, (S)-4-(4-((4-((1-(2-(4-(4-chlorophenyl)-2,3,9-trimethyl-6H-thieno[3,2-f][1,2,4]triazolo[4,3-a][1,4]diazepin-6-yl)acetyl)piperidin-4-yl)methyl)piperazin-1-yl)methyl)phenyl)-5-(5-ethyl-2,4-dihydroxyphenyl)-N-isopropyl-4H-1,2,4-triazole-3-carboxamide, trifluoroacetic acid] and `Cc1sc2c(c1C)C(c1ccc(Cl)cc1)=N[C@@H](CC(=O)N1CCC(CN3CCN(Cc4ccc(-n5c(C(=O)NC(C)C)nnc5-c5ccc(O)cc5O)cc4)CC3)CC1)c1nnc(C)n1-2` [Compound 119, (S)-4-(4-((4-((1-(2-(4-(4-chlorophenyl)-2,3,9-trimethyl-6H-thieno[3,2-f][1,2,4]triazolo[4,3-a][1,4]diazepin-6-yl)acetyl)piperidin-4-yl)methyl)piperazin-1-yl)methyl)phenyl)-5-(2,4-dihydroxyphenyl)-N-isopropyl-4H-1,2,4-triazole-3-carboxamide, trifluoroacetic acid] cannot be ordered by IC50: under 100 nM for the first, under 100 nM for the second.

`Cc1sc2c(c1C)C(c1ccc(Cl)cc1)=N[C@@H](CC(=O)N1CCN(Cc3ccc(-n4c(O)nnc4-c4cc(C(C)C)c(O)cc4O)cc3)CC1)c1nnc(C)n1-2` [Compound 38, 2-((6S)-4-(4-chlorophenyl)-2,3,9-trimethyl-6H-thieno[3,2-f][1,2,4]triazolo[4,3-a][1,4]diazepin-6-yl)-1-(4-(4-(3-(2,4-dihydroxy-5-isopropylphenyl)-5-hydroxy-4H-1,2,4-triazol-4-yl)benzyl)piperazin-1-yl)ethanone, trifluoroacetic acid] and `Cc1sc2c(c1C)C(c1ccc(Cl)cc1)=N[C@@H](CC(=O)N1CCC(CN3CCN(c4ccc(-n5c(O)nnc5-c5cc(C(C)C)c(O)cc5O)cc4)CC3)CC1)c1nnc(C)n1-2` [Compound 41, (S)-2-(4-(4-chlorophenyl)-2,3,9-trimethyl-6H-thieno[3,2-f][1,2,4]triazolo[4,3-a][1,4]diazepin-6-yl)-1-(4-((4-(4-(3-(2,4-dihydroxy-5-isopropylphenyl)-5-hydroxy-4H-1,2,4-triazol-4-yl)phenyl)piperazin-1-yl)methyl)piperidin-1-yl)ethanone] cannot be ordered by IC50: under 100 nM for the first, under 100 nM for the second.

`Cc1sc2c(c1C)C(c1ccc(Cl)cc1)=N[C@@H](CCN(C)CCOCCOc1ccc(-n3c(O)nnc3-c3cc(C(C)C)c(O)cc3O)cc1)c1nnc(C)n1-2` [Compound 71, (S)-4-(4-(4-(2-(2-((2-(4-(4-chlorophenyl)-2,3,9-trimethyl-6H-thieno[3,2-f][1,2,4]triazolo[4,3-a][1,4]diazepin-6-yl)ethyl)(methyl)amino)ethoxy)ethoxy)phenyl)-5-hydroxy-4H-1,2,4-triazol-3-yl)-6-isopropylbenzene-1,3-diol, trifluoroacetic acid] and `CCc1cc(-c2nnc(O)n2-c2ccc(CNC(=O)C[C@@H]3N=C(c4ccc(Cl)cc4)c4c(sc(C)c4C)-n4c(C)nnc43)cc2)c(O)cc1O` [Compound 56, 2-((6S)-4-(4-chlorophenyl)-2,3,9-trimethyl-6H-thieno[3,2-f][1,2,4]triazolo[4,3-a][1,4]diazepin-6-yl)-N-(4-(3-(5-ethyl-2,4-dihydroxyphenyl)-5-hydroxy-4H-1,2,4-triazol-4-yl)benzyl)acetamide] fall in the same range of IC50: 100 to 1000 nM for the first, 100 to 1000 nM for the second.

`Cc1cc(-c2nnc(C(=O)NCCN3CCCCC3)n2-c2ccc(CN3CCN(CC4CCN(C(=O)C[C@@H]5N=C(c6ccc(Cl)cc6)c6c(sc(C)c6C)-n6c(C)nnc65)CC4)CC3)cc2)c(O)cc1O` [Compound 124, (S)-4-(4-((4-((1-(2-(4-(4-chlorophenyl)-2,3,9-trimethyl-6H-thieno[3,2-f][1,2,4]triazolo[4,3-a][1,4]diazepin-6-yl)acetyl)piperidin-4-yl)methyl)piperazin-1-yl)methyl)phenyl)-5-(2,4-dihydroxy-5-methylphenyl)-N-(2-(piperidin-1-yl)ethyl)-4H-1,2,4-triazole-3-carboxamide, trifluoroacetic acid] and `CCN(CC)CCNC(=O)c1nnc(-c2ccc(O)cc2O)n1-c1ccc(CN2CCN(CC3CCN(C(=O)C[C@@H]4N=C(c5ccc(Cl)cc5)c5c(sc(C)c5C)-n5c(C)nnc54)CC3)CC2)cc1` [Compound 111, (S)-4-(4-((4-((1-(2-(4-(4-chlorophenyl)-2,3,9-trimethyl-6H-thieno[3,2-f][1,2,4]triazolo[4,3-a][1,4]diazepin-6-yl)acetyl)piperidin-4-yl)methyl)piperazin-1-yl)methyl)phenyl)-N-(2-(diethylamino)ethyl)-5-(2,4-dihydroxyphenyl)-4H-1,2,4-triazole-3-carboxamide, trifluoroacetic acid] cannot be ordered by IC50: under 100 nM for the first, under 100 nM for the second.

`Cc1sc2c(c1C)C(c1ccc(Cl)cc1)=N[C@@H](CC(=O)N1CCC(N3CCN(c4ccc(-n5c(O)nnc5-c5cc(C(C)C)c(O)cc5O)cc4)CC3)CC1)c1nnc(C)n1-2` [Compound 43, 2-((6S)-4-(4-chlorophenyl)-2,3,9-trimethyl-6H-thieno[3,2-f][1,2,4]triazolo[4,3-a][1,4]diazepin-6-yl)-1-(4-(4-(4-(3-(2,4-dihydroxy-5-isopropylphenyl)-5-hydroxy-4H-1,2,4-triazol-4-yl)phenyl)piperazin-1-yl)piperidin-1-yl)ethanone, trifluoroacetic acid] and `Cc1sc2c(c1C)C(c1ccc(Cl)cc1)=N[C@@H](CC(=O)NCC(=O)NCC1CN(C(=O)C3CCN(Cc4ccc(-n5c(O)nnc5-c5cc(C(C)C)c(O)cc5O)cc4)CC3)C1)c1nnc(C)n1-2` [Compound 60, 2-((6S)-4-(4-chlorophenyl)-2,3,9-trimethyl-6H-thieno[3,2-f][1,2,4]triazolo[4,3-a][1,4]diazepin-6-yl)-N-(2-(((1-(1-(4-(3-(2,4-dihydroxy-5-isopropylphenyl)-5-hydroxy-4H-1,2,4-triazol-4-yl)benzyl)piperidine-4-carbonyl)azetidin-3-yl)methyl)amino)-2-oxoethyl)acetamide, trifluoroacetic acid] cannot be ordered by IC50: under 100 nM for the first, under 100 nM for the second.

`CCNC(=O)c1noc(-c2cc(C(C)C)c(O)cc2O)c1-c1ccc(CN2CCN(CC3CCN(C(=O)C[C@@H]4N=C(c5ccc(Cl)cc5)c5c(sc(C)c5C)-n5c(C)nnc54)CC3)CC2)cc1` [Compound 126, (S)-4-(4-((4-((1-(2-(4-(4-chlorophenyl)-2,3,9-trimethyl-6H-thieno[3,2-f][1,2,4]triazolo[4,3-a][1,4]diazepin-6-yl)acetyl)piperidin-4-yl)methyl)piperazin-1-yl)methyl)phenyl)-5-(2,4-dihydroxy-5-isopropylphenyl)-N-ethylisoxazole-3-carboxamide hydrochloride] was tested, and the IC50 was under 100 nM.
